Measured values from patent US8946301B2, “Targeting of T-lymphocytes to treat amyotrophic lateral sclerosis” (ALS Therapy Development Institute, priority 2011, dated 2015).
Entries after “also recorded” stand apart in the source; their conditions may differ.

Columns and labels:
CD4+ lymphocytes = assay: FACS analysis of circulating CD4+ lymphocytes in whole blood of SOD1 mice; assay type: in vivo, mouse; settings: for CD4+ cells in whole blood: 4 hours after third dose, control approximately 12%
Procedure: FIG. 3B is a FACS analysis showing the reduction of CD4+ lymphocytes in the circulation of male SOD1 mice that received fingolimod treatment. Dosing of fingolimod and time points were the same as in FIG. 3A.
(§1) The following dosage regimen was used to determine the dose dependent effects of fingolimod in SOD1 mice: • Cohorts: • 1) SOD1 Fingolimod Treated “High Dose” (Load 2.5 mg/kg, 1.8 mg/kg Oral q7d) • 4 hour post final dose harvest • 7 day post final dose harvest • 2) SOD1 Fingolimod Treated “Low Dose” (Load 0.44 mg/kg, 0.32 mg/kg Oral q7d) • 4 hour post final dose harvest • 7 day post final dose harvest • 3) SOD1 Vehicle Control • 4 hour post final dose harvest • 7 day post final dose harvest
(§2) The predicted plasma fingolimod load for both the high dose and the low dose regimes were determined, see FIGS. 2A and 2B. Tissues were harvested 4 hours after the third fingolimod dose. This time point was selected to best characterize the behavior of lymphocytes in animals treated with fingolimod when circulating levels of the drug are near peak concentration.

CD45R positive cells = assay: Circulating CD45R positive cells in whole blood of SOD1 mice; assay type: in vivo, mouse; settings: SOD1 animals, high and low dose groups
Procedure: as §1, §2

[1] = system: lymphocytes in peritoneal lavage fluid; assay: Lymphocyte cell counts in peritoneal lavage fluid by FACS; assay type: in vivo, mouse; settings: vs untreated SOD1
Procedure: FIG. 4 is a graph showing cell counts in peritoneal lavage fluid. SOD1 animals received a loading dose of 2.5 mg/kg fingolimod orally, then oral 1.8 mg/kg once weekly for 3 weeks. Lymphocyte counts were measured via FACS for various cell surface antigens in the peritoneal lavage fluid.
SOD1 mice received a loading dose of 2.5 mg/kg fingolimod orally, then oral 1.8 mg/kg once weekly for 3 weeks. After sacrifice, several measurements were performed. To determine the lymphocyte cell count in peritoneal lavage fluid, peritoneal lavage fluid was removed after sacrifice of the animals and the peritoneal lavage fluid was subjected to fluorescent activated cell sorting for each of the cell surface antigens: CD11b, CD28, CD3, CD4, CD86, […], and LY6G. Lymphocyte cell count from SOD1 fingolimod treated mice was compared to untreated SOD1 mice in FIG. 4.

G93A-SOD1 mice = assay: Disease progression, onset and survival in the SOD1 ALS mouse model; assay type: in vivo; settings: vs untreated SOD1
Excerpt: FIGS. 7A, 7B, 7C, and 7D are charts showing symptomatic neurological disease progression in untreated SOD1 mice and SOD1 fingolimod treated mice. FIGS. 7A and 7C show the results for SOD1 mice having a low number (14-20) of copies of the transgene. FIGS. 7B and 7D show the results for SOD1 mice having a high number (20-25) copies of the transgene. Neurological disease progression was defined as the average neurological score over time for male SOD1 mice. For each chart, the lower line represents the SOD1 fingolimod treated mice; the upper line (i.e., having lower probability at each age in days, Dage) represents the untreated SOD1 mice.
FIG. 8A is a chart comparing disease onset probability as assessed by the Cox Proportional Hazards model in untreated SOD1 and SOD1 fingolimod treated mice. The black right line represents the SOD1 fingolimod treated mice; the gray left line represents the untreated SOD1 mice.
FIG. 8B is a chart comparing survival as assessed by the Cox Proportional Hazards model in untreated SOD1 mice and SOD1 fingolimod treated mice for individual animals. The black right line represents the SOD1 fingolimod treated mice; the gray left line represents the untreated SOD1 mice.
FIG. 9A is a chart showing disease onset probability as calculated by the Weibull method versus time in untreated SOD1 mice and SOD1 fingolimod treated mice. The right line represents the SOD1 fingolimod treated mice; the left line represents the untreated SOD1 mice.
FIG. 9B is a chart showing survival as calculated by the Weibull method versus time in untreated SOD1 mice and SOD1 fingolimod treated mice. The right line represents the SOD1 fingolimod treated mice; the left line represents the untreated SOD1 mice.
To assess the impact of reducing T lymphocyte cell proliferation on disease progression in the SOD1 preclinical animal model, fingolimod was administered to SOD1 mice and parameters of disease progression were measured, including daily measurements of neurological severity score, as well as T lymphocyte cell proliferation.
Neurological scores for both hind legs were assessed daily for each mouse from 50 days of age. The neurological score employed a scale of 0 to 4 that was developed by observation at ALSTDI (Scott et al., 2008). […] Animals were assigned a score of 2 when the toes curled under at least twice during walking a distance of 12 inches, or any part of the foot was dragging along the cage bottom/table. Animals were assigned a score of 3 when they had rigid paralysis or minimal joint movement, or a foot was not being used for forward motion. Animals were assigned a score of 4 when they […] within 30 seconds after being laid on either side. At the point where at least one hind leg was scored as 2, food pellets were left on the cage bedding to permit easy access to food. If both hind legs were scored as 2, Nutra-Gel® (Bio-Serve #S4798) was provided as food in addition to food pellets placed on the cage bedding and a long sipper tube was placed on the water bottle.
Date and cause of death were recorded for each mouse. For humane reasons, animals were closely monitored and sacrificed as moribund prior to actual death using criteria for severe moribundity. To determine duration of survival reliably and humanely, the moribund state, defined as the inability of mice to right themselves 30 seconds after being placed on a side (a neurological score of 4) was used. The moribund mice were scored as “dead,” and were euthanized using carbon dioxide asphyxiation.
To determine the impact of reducing T lymphocyte cell proliferation on disease progression in the SOD1 preclinical animal model, a Weibull analysis was performed on the data from the animal study described in Examples 3-5.

[2] = cited from earlier work
[3] = system: lymphocytes, dendritic cells, regulatory T cells; settings: cited from earlier work
[4] = system: experimental autoimmune neuritis; settings: Zhang et al. 2008, cited from earlier work
[5] = whole blood, vs vehicle control

SMILES: CCCCCCCCc1ccc(CCC(N)(CO)CO)cc1 [fingolimod, 2-amino-2-(4-octylphenethyl)propane-1,3-diol]
- circulating CD4 positive cells in whole / peripheral blood (in words) (CD4+ lymphocytes; SOD1 animals, high and low dose groups): fewer; also recorded: transiently depletes
- CD4+ cells in whole blood (CD4+ lymphocytes; high dose (load 2.5 mg/kg, 1.8 mg/kg q7d)): approximately 5%
- CD4+ cells in whole blood (CD4+ lymphocytes; low dose (load 0.44 mg/kg, 0.32 mg/kg q7d)): approximately 5%
- reduction in CD4+ cells (CD4+ lymphocytes; [5]): at least 50%
- reduction in CD4+ cells (fold) (CD4+ lymphocytes; [5]): over two-fold
- circulating CD45R positive cells in whole blood (in words) (CD45R positive cells): fewer
- lymphocyte count, CD11b ([1]; load 2.5 mg/kg oral then 1.8 mg/kg once weekly for 3 weeks): decreased lymphocyte count
- lymphocyte count, CD4 ([1]; same regimen): decreased lymphocyte count
- lymphocyte count, CD28 ([1]; same regimen): decreased lymphocyte count
- lymphocyte count, CD86 ([1]; same regimen): decreased lymphocyte count
- lymphocyte count, CTLA34 ([1]; same regimen): decreased lymphocyte count
- lymphocyte count, LY6G ([1]; same regimen): decreased lymphocyte count
- disease onset probability (Weibull method) (G93A-SOD1 mice; SOD1 mice): reduced disease onset probability
- survival probability (Weibull method) (G93A-SOD1 mice; SOD1 mice): increased survival probability
- neurological score over time (G93A-SOD1 mice; male SOD1 mice, high copy number (20-25 copies)): improvement
- neurological score over time (G93A-SOD1 mice; male SOD1 mice, low copy number (14-20 copies)): improvement
- disease onset probability (Cox Proportional Hazards model) (G93A-SOD1 mice; male SOD1 mice): delayed onset of disease
- survival (Cox Proportional Hazards model) (G93A-SOD1 mice; male SOD1 mice): extended survival
- CNS penetration and localization ([2]; Foster et al. 2007): CNS penetrant and localizes in the CNS white matter
- brain/plasma ratio (in words) ([2]; Meno-Tetang 2006): high
- plasma half-life (in words) ([2]; Meno-Tetang 2006): relatively long
- circulating dendritic cells ([3]; Lan 2005, 2008): large increase
- effect on lymphocyte population ([3]; Tsunemi 2010 and Zemann 2006): lymphopenia
- regulatory T cells ([3]; Zhang et al. 2009): increase
- severity and duration of experimental autoimmune neuritis [4]: reduced the severity and duration
- paraparesis ([4]; if administrated with immunization): suppress paraparesis
